Common to all, as to type: cell-based
One test relates to IL-6. In words: IL-6 cytokine activation in human PBMC (MSD assay). The note with it: read-out: IL6 EC50. As for the experimental part:
(§1) The other below tests involving measuring the in vitro activity of some compounds of the disclosure on cytokines IFN-α2a, IL-6, IL29 and TNF-α were carried out using human PBMC (PBMCs).
(§2) The activity described below, with respect to TLR7, TLR8, IFN-α2a, IL-6, IL29 and TNF-α, is given by the half maximal effective concentration (EC50), which corresponds to the concentration required to obtain a 50% of the activation. The lower the EC50, the less the concentration of the compound is required to produce 50% of maximum activation and the higher the potency.
(§3) In Vitro Assay to Determine IFN-α2a, IL-6, IL29 and TNF-α Cytokine Activation:
(§4) Peripheral blood mononuclear cells were isolated by Ficoll density gradient centrifugation from peripheral blood samples obtained from healthy donors (EFS). Isolated PBMCs are washed twice with PBS and resuspended in RPMI-1640 medium supplement with 10% fetal bovine serum (FBS) at 5.10^5 cells/well in a 96-well plate. The cells were then incubated with the compounds to test at various doses (20 μM to 4.8.10-6 μM final) for 24 h at 37° C., 5% CO2. After 24 h treatment, the plates are centrifuged and the supernatant were collected and assayed for cytokines IFN-α2a, IL-6, IL29 and TNF-α using the Meso Scale Discovery (MSD) assay platform according to the manufacturer's instructions. Briefly, 25 μL of cell culture supernatants were incubated for 1 h at Room Temperature (RT) in custom Multi-Spot 96-well plates prior coated with capture antibodies. After washing, SULFO-TAG® labeled detection antibodies were added to each of the wells and incubated for 1 h RT before adding a read buffer.

The test system of the next test is IFN-α2a. In words: IFN-α2a cytokine activation in human PBMC (MSD assay). The protocol:
as §1, §2, §3, §4

The target of another test is T1, human TLR8 (Homo sapiens, UniProt Q9NR97).
T1 construct: host or cells: HEK293 (HEK-Blue hTLR8)
T1 sequence (Q9NR97 27-1041): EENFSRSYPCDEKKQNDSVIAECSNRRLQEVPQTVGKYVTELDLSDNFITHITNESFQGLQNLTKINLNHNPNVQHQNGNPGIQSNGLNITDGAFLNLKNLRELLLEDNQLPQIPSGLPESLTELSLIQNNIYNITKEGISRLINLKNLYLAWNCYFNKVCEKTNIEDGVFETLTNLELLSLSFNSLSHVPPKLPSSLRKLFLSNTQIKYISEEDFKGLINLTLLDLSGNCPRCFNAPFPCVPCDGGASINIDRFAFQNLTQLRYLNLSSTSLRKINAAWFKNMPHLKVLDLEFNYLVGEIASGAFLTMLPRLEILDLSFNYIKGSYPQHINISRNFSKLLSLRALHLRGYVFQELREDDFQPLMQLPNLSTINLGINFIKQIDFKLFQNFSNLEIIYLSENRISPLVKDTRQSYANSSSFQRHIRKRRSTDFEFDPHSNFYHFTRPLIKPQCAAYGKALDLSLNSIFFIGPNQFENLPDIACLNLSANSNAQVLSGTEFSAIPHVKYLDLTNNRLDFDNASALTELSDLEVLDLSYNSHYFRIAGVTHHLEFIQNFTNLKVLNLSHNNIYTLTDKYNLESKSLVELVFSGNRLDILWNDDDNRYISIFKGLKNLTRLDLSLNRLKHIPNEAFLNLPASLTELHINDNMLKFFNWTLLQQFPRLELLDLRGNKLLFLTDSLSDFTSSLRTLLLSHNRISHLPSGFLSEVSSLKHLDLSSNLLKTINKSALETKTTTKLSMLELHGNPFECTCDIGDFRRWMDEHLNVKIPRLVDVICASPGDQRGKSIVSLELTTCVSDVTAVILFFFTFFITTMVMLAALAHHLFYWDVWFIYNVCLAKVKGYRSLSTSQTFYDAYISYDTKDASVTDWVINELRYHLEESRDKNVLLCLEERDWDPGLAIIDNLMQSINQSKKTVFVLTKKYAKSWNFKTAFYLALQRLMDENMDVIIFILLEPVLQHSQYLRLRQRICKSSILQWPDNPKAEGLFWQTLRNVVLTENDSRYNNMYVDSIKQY
The test is described as follows: HEK-Blue hTLR8 reporter cell assay (SEAP, NF-kB/AP-1) for stimulation of human TLR8. To be noted: HEK-Blue hTLR8 cells, 24 h incubation, SEAP readout; read-out: TLR8_EC50. The gist of the method:
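Stimulation is quantified as secreted alkaline phosphatase in supernatant using QUANTI-Blue™ substrate. Reporter HEK293 line co-transfected with hTLR8 and SEAP under an IFN-β minimal promoter with five NF-κB/AP-1 sites; 3.10E4 cells/well, 18 to 24 h pre-culture at 37° C. before compounds.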

Each structure is given as a SMILES string. Where two headings read alike, the source gives them in different places. Bounds are passed on as bounds.

As for `CCCCc1nc2c(N)nnc(OC(C)C)c2n1C[C@H]1CCC[C@@H](N)C1` (racemic) [Compound 23, 1-(((1S,3R)-3-aminocyclohexyl)methyl)-2-butyl-7-isopropoxy-1H-imidazo[4,5-d]pyridazin-4-amine (and enantiomer)], the EC50 is 204 nM in the test on IL-6 (Homo sapiens, PBMC, 24 h); 3 nM with IFN-α2a (Homo sapiens, PBMC, 24 h); 14600 nM at human TLR8.
The matching figures for `CCCCc1nc2c(N)nnc(OC(C)C)c2n1Cc1ccc(OC)cc1` [Compound 1, 2-butyl-7-isopropoxy-1-(4-methoxybenzyl)-1H-imidazo[4,5-d]pyridazin-4-amine]: 457 nM, 103 nM and above 20000 nM.
Taken in the same sequence, the figures for `CCCCc1nc2c(N)nnc(NC(C)C)c2n1Cc1ccc(OC)cc1` [Compound 2, 2-butyl-N7-isopropyl-1-(4-methoxybenzyl)-1H-imidazo[4,5-d]pyridazin-4,7-diamine] were 99 nM, 3 nM and above 20000 nM.
On to `CCCCc1nc2c(N)nnc(SC(C)C)c2n1Cc1ccc(OC)cc1` [Compound 3, 2-butyl-7-(isopropylthio)-1-(4-methoxybenzyl)-1H-imidazo[4,5-d]pyridazin-4-amine], for which the EC50 with IL-6 (Homo sapiens, PBMC, 24 h) is 1410 nM; with IFN-α2a (Homo sapiens, PBMC, 24 h), 62 nM; at human TLR8, above 20000 nM.
Taken in the same sequence, the figures for `CCCCc1nc2c(N)nnc(OCCOC)c2n1Cc1ccc(OC)cc1` [Compound 4, 2-butyl-1-(4-methoxybenzyl)-7-(2-methoxyethoxy)-1H-imidazo[4,5-d]pyridazin-4-amine] were 1940 nM, 81 nM and above 20000 nM.
The matching figures for `C=CCOc1nnc(N)c2nc(CCCC)n(Cc3ccc(OC)cc3)c12` [Compound 6, 7-(allyloxy)-2-butyl-1-(4-methoxybenzyl)-1H-imidazo[4,5-d]pyridazin-4-amine]: 331 nM, 112 nM and above 20000 nM.
Taken in the same sequence, the figures for `CCCCc1nc2c(N)nnc(OC3CCCC3)c2n1Cc1ccc(OC)cc1` [Compound 9, 2-butyl-7-(cyclopentyloxy)-1-(4-methoxybenzyl)-1H-imidazo[4,5-d]pyridazin-4-amine] were 149 nM, 16 nM and above 20000 nM.
Consider `CCCCc1nc2c(N)nnc(N3CCCC3)c2n1Cc1ccc(OC)cc1` [Compound 10, 2-butyl-1-(4-methoxybenzyl)-7-(pyrrolidin-1-yl)-1H-imidazo[4,5-d]pyridazin-4-amine], for which the EC50 was 177 nM with IL-6 (Homo sapiens, PBMC, 24 h); 14 nM in the test with IFN-α2a (Homo sapiens, PBMC, 24 h); above 20000 nM at human TLR8.
On to `CCCCc1nc2c(N)nnc(-c3cc[nH]c3)c2n1Cc1ccc(OC)cc1` [Compound 14, 2-butyl-1-(4-methoxybenzyl)-7-(1H-pyrrol-3-yl)-1H-imidazo[4,5-d]pyridazin-4-amine], for which the EC50 with IL-6 (Homo sapiens, PBMC, 24 h) is 106 nM; in the test on IFN-α2a (Homo sapiens, PBMC, 24 h), 18 nM; on human TLR8, above 20000 nM.
Taken in the same sequence, the figures for `C=C(C)c1nnc(N)c2nc(CCCC)n(Cc3ccc(OC)cc3)c12` [Compound 17, 2-butyl-1-(4-methoxybenzyl)-7-(prop-1-en-2-yl)-1H-imidazo[4,5-d]pyridazin-4-amine] were 186 nM, 17 nM and above 20000 nM.
As for `CCCCc1nc2c(N)nnc(C(C)C)c2n1Cc1ccc(OC)cc1` [Compound 18, 2-butyl-7-isopropyl-1-(4-methoxybenzyl)-1H-imidazo[4,5-d]pyridazin-4-amine], the EC50 was 548 nM with IL-6 (Homo sapiens, PBMC, 24 h); 71 nM in the test with IFN-α2a (Homo sapiens, PBMC, 24 h); above 20000 nM on human TLR8.
As for `CCCCc1nc2c(N)nnc(OC(C)C)c2n1Cc1ccc(CN)cc1` [Compound 21, 1-(4-(aminomethyl)benzyl)-2-butyl-7-isopropoxy-1H-imidazo[4,5-d]pyridazin-4-amine], the EC50 came to 8 nM with IL-6 (24 h), 0.4 nM in the test on IFN-α2a (24 h) and 1370 nM on human TLR8.
In the case of `CCCCc1nc2c(N)nnc(OC(C)C)c2n1Cc1ccc(CN)cc1` [Compound 22, 1-(4-(aminomethyl)benzyl)-2-butyl-7-isopropoxy-1H-imidazo[4,5-d]pyridazin-4-amine 2,2,2-trifluoroacetate], the EC50 in the test on IL-6 (24 h, 2,2,2-trifluoroacetate) worked out at 165 nM; in the test on IFN-α2a (24 h, 2,2,2-trifluoroacetate), 0.1 nM; at human TLR8 it was 2610 nM.
Turning to `CCCCc1nc2c(N)nnc(OC(C)C)c2n1Cc1cccc(CN)c1` [Compound 33, 1-(3-(aminomethyl)benzyl)-2-butyl-7-isopropoxy-1H-imidazo[4,5-d]pyridazin-4-amine 2,2,2-trifluoroacetate], the EC50 was 52 nM in the test on IL-6 (Homo sapiens, PBMC, 24 h); 3 nM in the test with IFN-α2a (Homo sapiens, PBMC, 24 h); 336 nM on human TLR8.
Taken in the same sequence, the figures for `CCCCc1nc2c(N)nnc(OC(C)C)c2n1Cc1ccc(C=O)cc1` [Compound 34, 4-((4-amino-2-butyl-7-isopropoxy-1H-imidazo[4,5-d]pyridazin-1-yl)methyl)benzaldehyde] were 75 nM, 36 nM and above 20000 nM.
The matching figures for `CCCCc1nc2c(N)nnc(OC(C)C)c2n1Cc1ccc(CO)cc1` [Compound 35, (4-((4-amino-2-butyl-7-isopropoxy-1H-imidazo[4,5-d]pyridazin-1-yl)methyl)phenyl)methanol]: 40 nM, 21 nM and above 20000 nM.
With `CCCCc1nc2c(N)nnc(N(C)C)c2n1C` [Compound 41, 2-butyl-N7,N7,1-trimethyl-1H-imidazo[4,5-d]pyridazine-4,7-diamine], the EC50 is 1280 nM in the test with IL-6 (Homo sapiens, PBMC, 24 h); 1220 nM in the test with IFN-α2a (Homo sapiens, PBMC, 24 h); 7190 nM at human TLR8.
As to `CCCCc1nc2c(N)nnc(OCC)c2n1Cc1ccc(OC)cc1` [Compound 48, 2-butyl-7-ethoxy-1-(4-methoxybenzyl)-1H-imidazo[4,5-d]pyridazin-4-amine], the EC50 in the test on IL-6 (Homo sapiens, PBMC, 24 h) is 368 nM; in the test on IFN-α2a (Homo sapiens, PBMC, 24 h), 89 nM; at human TLR8 it was above 20000 nM.
Taken in the same sequence, the figures for `CCCCc1nc2c(N)nnc(NCCOC)c2n1Cc1ccc(OC)cc1` [Compound 49, 2-butyl-1-(4-methoxybenzyl)-N7-(2-methoxyethyl)-1H-imidazo[4,5-d]pyridazine-4,7-diamine] were 1730 nM, 75 nM and above 20000 nM.
Taken in the same sequence, the figures for `CCCCc1nc2c(N)nnc(N(C)C)c2n1Cc1ccc(OC)cc1` [Compound 71, 2-butyl-1-(4-methoxybenzyl)-N7,N7-dimethyl-1H-imidazo[4,5-d]pyridazine-4,7-diamine] were 571 nM, 63 nM and above 20000 nM.
For `CCCCc1nc2c(N)nnc(OC(C)C)c2n1Cc1ccccn1` [Compound 75, 2-butyl-7-isopropoxy-1-(pyridin-2-ylmethyl)-1H-imidazo[4,5-d]pyridazin-4-amine], the EC50 in the test with IL-6 (Homo sapiens, PBMC, 24 h) is 181 nM; in the test with IFN-α2a (Homo sapiens, PBMC, 24 h) it was 17 nM; on human TLR8 it was above 20000 nM.

The values are drawn from patent publication US12583861B2, “Derivatives of imidazo[4,5-d]pyridazine, their preparation and their therapeutic application” (SANOFI, priority 2021, dated 2026).
